Source: patent US8975275B2, “Use of chemotherapeutic agents” (priority 1999, dated 2015)
Where a name gives a salt, the structure may show the parent alone.

Legend:
bacteraemia = conditions: systemic administration ten minutes prior to a dental extraction; cited from earlier work
[1] = system: Staphylococcus aureus strains; conditions: microorganisms isolated from the root canals after topical antibiotic treatment; cited from earlier work
Staphylococcus epidermis = conditions: microorganisms isolated from the root canals after topical antibiotic treatment; cited from earlier work
[2] = system: pulpitis due to carious diseases; test: Topical treatment of pulpitis due to carious diseases (patient cases); type: in vivo, human
Description: This is of great importance because, for example in the case of caries profunda, it is always necessary to decide whether softened residual dentin can be left over the pulp. By virtue of complete elimination of the microbes present, there is now a novel method of treatment wherein a thin softened dentin covering can be left if the compounds of formula (I) or formula (II) are used. This method of treatment makes it possible to free infected dentin layers of microbes and to stop pulp infections. This means that pain reactions are eliminated and pulp infections are to a certain extent cured. The pulp remains vital. The topical application of the compounds of formula (I) or formula (II) followed the removal of the carious dentin. The compounds of formula (I) or formula (II) were applied for example in aqueous solution, in a form of gelatinous consistency or on an inert carrier, for example by means of a cotton wool plug. The overlying cavity was occluded with a cement to seal the margins. The cotton wool plug was left in the cavity for three to six days. The compounds of formula (I) or formula (II) can be used in concentrations of 0.005 mg/ml to 200 mg/ml, Preferred concentrations are those ranging from 0.5 mg/ml to 150 mg/ml and particularly preferred concentrations are those ranging from 10 to 100 mg/ml.

[3] = system: infected root canal and periapical region; test: Topical treatment of the infected root canal and the periapical region (patient cases); type: in vivo, human
Procedure: In the clinical use of the compounds of formula (I) or formula (II), the pulp residues are removed first. The preparation of the canals is carried out with minimum discomfort for the patient. The canals are then flushed with hydrogen peroxide, Other methods of disinfection can be omitted. The compounds of formula (I) or formula (II), in a liquid form of administration, are then introduced into the toot canal under pressure using a cannula. The compounds of formula (I) or (II) are then injected in dissolved form or in a gelatinous form of administration. The root canal is subsequently occluded in the crown region, first with a cotton wool plug and then with zinc phosphate cement to seal the margins. If the canals are not gangrenous, the antibiotics remain in the canals for 3 days. […] The compounds of formula (I) or formula (II) can be used in concentrations of 0.005 mg/ml to 200 mg/ml.
In this application technique, which is known from intraligamental anaesthesia, the tooth is completely flooded with the antibacterial solution of the compounds of formula (I) or formula (II) in the entire root region.

periodontal diseases = test: Topical treatment of periodontal diseases (patient cases); type: in vivo, human
Description: To do this, threads or so-called chips impregnated with solutions or gelatinous preparations of the compounds of formula (I) or formula (II) are inserted in the gingival pocket. A possible alternative is to use medicament carriers in the form of trays covering the teeth and gingiva. Before they are applied, the gelatinous applications of the compounds of formula (I) or formula (II) are instilled into the gingival pockets. In addition, the gel containing the compounds of formula (I) or formula (II) can also be placed in the medicament carrier. This use of medicament carriers is advantageous because the treatment time can be reduced by the rapid onset of action to about 15 to 30 minutes, so the treatment can be carried out directly in the surgery. The compounds of formula (I) or formula (II) can be used in concentrations of 0.005 mg/ml to 200 mg/ml. Preferred concentrations are those ranging from 0.5 mg/ml to 200 mg/ml and particularly preferred concentrations are those ranging from 10 to 150 mg/ml. Periodontal diseases can also be treated by administering the compounds of formula (I) or formula (II) by intraligamental injection, it being possible to use concentrations ranging from 0.005 mg/ml to 200 mg/ml, preferably from 0.5 mg/ml to 200 mg/ml. For the antibiotics commonly used nowadays, such as tetracyclines, an intraligamental injection is not reasonable since these compounds with a predominantly bacteriostatic action are quickly washed out due to the rapid fluid exchange in the periodontal interstice, and cannot develop their action. Tetra-cyclines can therefore only develop their effects via depot formulations. By contrast, the compounds of formula (I) or formula (II) have a very rapid and also bactericidal action, so their residence time in the periodontal interstice is sufficient to destroy the microbes.

osseomucosal wounds = test: Topical treatment of osseomucosal wounds (patient cases); type: in vivo, human
Description: Application is effected by flushing and/or by means of strip inserts impregnated with compounds of formula (I) or formula (II). They are to be used for example for postoperative infections following dentosurgical interventions (extractions). For this purpose the gel containing the compound of formula (I) or formula (II) is syringed directly into the extraction wound or onto a collagen sponge which remains in the extraction wound. The wound is closed for about half an hour by biting on a tampon. Prophylactic applications have been particularly successful after the extraction of teeth with focal infections, Liquid forms of administration suitable for flushing fistulae are those containing the compounds of formula (I) or formula (II) in concentrations of 0.005 mg/ml to 250 mg/ml. Preferred concentrations are those ranging from 0.5 to 100 mg/ml, Forms suitable for coating strips are gels containing the compounds of formula (I) or formula (II), as well as aqueous solutions or suspensions. These applications can contain the compounds of formula (I) or formula (II) in concentrations of 0.005 mg/ml to 200 mg/ml. Preferred concentrations for solutions are those ranging from 0.1 to 50 mg/ml Gelatinous forms of administration in concentrations of 25-150 mg/ml are preferred in the case of strip inserts.

## CO/N=C(\C(=O)N[C@@H]1C(=O)N2C(C(=O)O)=C(COC(N)=O)CS[C@H]12)c1ccco1 [cefuroxim]
bacteraemia
  frequency of bacteraemia versus the untreated group: lower frequency

## O=C(N[C@H](CO)[C@H](O)c1ccc([N+](=O)[O-])cc1)C(Cl)Cl [chloramphenicol]
[1]
  resistance of strains: majority of Staphylococcus aureus strains were resistant

## CC[C@H]1OC(=O)[C@H](C)[C@@H](O[C@H]2C[C@@](C)(OC)[C@@H](O)[C@H](C)O2)[C@H](C)[C@@H](O[C@@H]2O[C@H](C)C[C@H](N(C)C)[C@H]2O)[C@](C)(O)C[C@@H](C)C(=O)[C@H](C)[C@@H](O)[C@]1(C)O [erythromycin]
Staphylococcus epidermis
  increase of resistance after the treatment: three-fold
[1]
  resistance of strains: majority of Staphylococcus aureus strains were resistant

## CO/N=C1\CN(c2nc3c(cc2F)c(=O)c(C(=O)O)cn3C2CC2)CC1CN (stereo not drawn) [gemifloxacin mesylate, 7-[(4Z)-3-(aminomethyl)-4-(methoxyimino)-1-pyrrolidinyl]-1-cyclopropyl-6-fluoro-1,4-dihydro-4-oxo-1,8-naphtyridine-3-carboxylic acid]
[2]; Patient A 1.13, gel 25 mg/ml, repetition of insert, check-up after 4 days
  clinical finding at check-up: tooth vital, patient symptom-free
[2]; Patient A 1.13, tooth 14, pellet insert gel 25 mg/ml, check-up after 3 weeks
  clinical finding at check-up: still slight discomfort

## Cc1c(F)c(N2CCNC(C)C2)cc2c1c(=O)c(C(=O)O)cn2C1CC1 (stereo not drawn) [grepafloxacin, 1-cyclopropyl-6-fluoro-1,4-dihydro-5-methyl-7-(3-methyl-1-piperazinyl)-4-oxo-3-quinolinecarboxylic acid]
[2]; Patient A 1.11, gel 25 mg/ml, after final filling, check-up after 4 weeks
  clinical finding at check-up: tooth vital, patient symptom-free
[2]; Patient A 1.11, tooth 22, pellet insert gel 25 mg/ml, check-up after 5 days
  clinical finding at check-up: patient was symptom-free
[2]; Patient A 1.12, gel 50 mg/ml, after final filling, check-up after 14 days
  clinical finding at check-up: teeth vital, patient symptom-free
[2]; Patient A 1.12, teeth 22, 23, pellet inserts gel 50 mg/ml, check-up after 1 week
  clinical finding at check-up: teeth symptom-free
[3]; Patient A 3.16, after root filling, check-up after 1 week
  clinical finding at check-up: patient still symptom-free
[3]; Patient A 3.16, tooth 46 apical periodontitis, not gangrenous, root canal insert gel 50 mg/ml, check-up after 3 weeks
  clinical finding at check-up: patient symptom-free
[3]; Patient A 3.17, after root filling, check-up after 4 days
  clinical finding at check-up: patient symptom-free
[3]; Patient A 3.17, tooth 32 apical periodontitis due to gangrene, solution 20 mg/ml + gel 20 mg/ml + intraligamental injection 50 mg/ml, check-up after 6 days
  clinical finding at check-up: no gangrenous odour, no bite discomfort
[3]; Patient A 3.23, tooth 34 fistulation, gangrenous, solution 50 mg/ml by paper point + intraligamental injection 50 mg/ml, check-up after 10 days
  clinical finding at check-up: patient symptom-free
Periodontal diseases; Patient B 7, teeth 14-17 marginal periodontitis, thread insert gel 50 mg/ml + intraligamental injection 50 mg/ml, check-up after 9 days
  clinical finding at check-up: patient symptom-free, gingival regions and pockets inflammation-free
Osseomucosal wounds; Patient C 8, apical granulomas, extraction (osteotomy), gauze with gel 50 mg/ml, check-up after 3 days
  clinical finding at check-up: patient is symptom-free
Osseomucosal wounds; Patient C 9, same combined treatment, after root canal filling, check-up after 2 weeks
  clinical finding at check-up: patient symptom-free
Osseomucosal wounds; Patient C 9, tooth 14 pulpitis purulenta, fistulation, moxifloxacin hydrochloride solution 25 mg/ml flushing + grepafloxacin gel 25 mg/ml canal insert + moxifloxacin hydrochloride gel 25 mg/ml gauze insert, check-up after 6 days
  clinical finding at check-up: patient symptom-free

## C[C@H]1COc2c(N3CCN(C)CC3)c(F)cc3c(=O)c(C(=O)O)cn1c23 [levofloxacin, (3S)-9-fluoro-2,3-dihydro-3-methyl-10-(4-methyl-1-piperazinyl)-7-oxo-7H-pyrido[1,2,3-de]-1,4-benzoxazine-6-carboxylic acid]
[2]; Patient A 1.14, tooth 13, night pain, pellet inserts gel 50 mg/ml, check-up after 14 days
  clinical finding at check-up: patient symptom-free, tooth vital

## COc1cccc(OC)c1C(=O)N[C@@H]1C(=O)N2[C@@H]1SC(C)(C)[C@@H]2C(=O)O [methicillin]
Staphylococcus epidermis
  increase of resistance after the treatment: two-fold

## C[C@@H]1CN(c2c(F)c(N)c3c(=O)c(C(=O)O)cn(C4CC4)c3c2F)C[C@H](C)N1 [sparfloxacin, 5-amino-1-cyclopropyl-7-[(3R,5S)-3,5-dimethyl-1-piperazinyl]-6,8-difluoro-1,4-dihydro-4-oxo-3-quinolinecarboxylic acid]
[2]; Patient A 1.16, gel 25 mg/ml, repetition of insert, check-up after 14 days
  clinical finding at check-up: patient symptom-free, tooth vital
[2]; Patient A 1.16, tooth 46 reduced vitality, pellet insert gel 25 mg/ml, check-up after 4 days
  clinical finding at check-up: still slight sensitivity to heat

## NC1CCN(c2nc3c(cc2F)c(=O)c(C(=O)O)cn3-c2ccc(F)cc2F)C1 (stereo not drawn) [tosufloxacin tosylate, 7-(3-amino-1-pyrrolidinyl)-1-(2,4-difluorophenyl)-6-fluoro-1,4-dihydro-4-oxo-1,8-naphthyridine-3-carboxylic acid]
[3]; Patient A 3.20, tooth 47 apical periodontitis, not gangrenous, root canal insert gel 100 mg/ml, check-up after 8 days
  clinical finding at check-up: patient symptom-free
[3]; Patient A 3.22, tooth 35 apical periodontitis, not gangrenous, root canal insert gel 50 mg/ml, check-up after 10 days
  clinical finding at check-up: patient symptom-free

## N[C@@H]1[C@H]2CN(c3nc4c(cc3F)c(=O)c(C(=O)O)cn4-c3ccc(F)cc3F)C[C@@H]12 [trovafloxacin mesylate, 7-(1α,5α,6α-6-amino-3-azabicyclo[3.1.0]hex-3-yl)-1-(2,4-difluorophenyl)-6-fluoro-1,4-dihydro-4-oxo-1,8-naphthyridine-3-carboxylic acid]
[2]; Patient A 1.15, tooth 44, night pain, pellet insert gel 50 mg/ml, check-up after 9 days
  clinical finding at check-up: patient symptom-free, tooth vital
[3]; Patient A 3.18, tooth 34 apical periodontitis due to gangrene, gel 100 mg/ml + intraligamental injection 50 mg/ml, check-up after 12 days
  clinical finding at check-up: patient symptom-free
[3]; Patient A 3.19, tooth 11 apical periodontitis due to gangrene simplex, root canal insert solution 50 mg/ml, check-up after 3 weeks
  clinical finding at check-up: patient symptom-free, canal odour-free
Periodontal diseases; Patient B 8, marginal periodontitis entire upper and lower jaw, medicinal splint gel 0.25 mg/ml 10 minutes/day for 6 days, check-up after 6 days
  clinical finding at check-up: patient symptom-free, inflammation phenomena no longer present

## penicillin
[1]
  resistance of strains: majority of Staphylococcus aureus strains were resistant
